Measured values as given in PMC9249808, “A novel lipidic peptide with potential to promote balanced effector-regulatory T cell responses” (Scientific Reports, 2022).

Tests used:
[1] = test system: CD4+ T cells within T cell cultures; test: Flow cytometry of CD4+ T cells within isolated CD3+ T cell cultures (anti-CD3/anti-CD28); assay type: cell-based, human; conditions: anti-CD3/anti-CD28, 72 h, MFI, Fig. 1b (IK14004), Fig. 1e (IK14000)
Description: CD3^+ T cells were isolated from PBMCs by negative selection using immune-magnetic separation (Stem cell kits), resuspended in complete medium as used for PBMCs at 0.5 × 10^6/mL and plated at a density of 5 × 10^4 per well (100 µL) in 96-well, flat bottom culture plates. CD4^+ and CD8^+ T cell populations were isolated by immunomagnetic separation and resuspended in RPMI-10 at 0.5 × 10^6/mL with a plating density of 0.5 × 10^5 per well. Either the lipidic peptide, IK14004, or IK14000 ([…]) was added to wells at a final volume of 50 µL per well, together with anti-CD3 anti-CD28 coated Dynabeads (ThermoFisher) at a 4:1 cell:bead ratio (1.25 × 10^4/well, 50 µL volume) and cells cultured for 72 h at 37 °C and 5% CO2. […]
For flow cytometry and ELISA experiments, data from IK14004 and vehicle groups were analysed using parametric statistical procedures. […]

Lck = test: Kinase profiling, Lck; assay type: biochemical; conditions: Eurofins KinaseProfiler, [γ-33P-ATP] scintillation, 0.003-10 uM, 2% DMSO, no pre-incubation, Fig. 6c, 6e
Description: Non-cell-based kinase profiling assays were performed by Eurofins (France). All compounds were prepared to 50 × final assay concentration in 100% DMSO. This working stock of the compound was added to assay wells as the first component in the reaction, followed by the remaining components as detailed in the specific assay protocols below. In the standard KinaseProfiler service, there was no pre-incubation step between the compound and the kinase prior to initiation of the reaction. Control wells contained all components of the reaction, except the compound of interest; however, DMSO (at a final concentration of 2%) was included in these wells to control for solvent effects. […] The reference inhibitors for each kinase are indicated in the methods for each kinase assay. […] Kinase activities were assessed in the presence of compounds at a concentration range of 0.003 -10 uM and the following kinases were tested: c-Src, Lck, Jak1, Jak2, Tyk2, CaMKIV and HPK1 (MAP4K1). Reactions between IK14004, substrates and MgAcetate/[γ^33P-ATP] mixes for each respective kinase were stopped by the addition of phosphoric acid and reaction mixtures spotted on P30 filtermats for scintillation according to the detailed methods available from Eurofins. The activities of Lck and c-Src were also assessed in the presence of the unconjugated components of IK14004, i.e., […] (IK14000) and the dodecanoic acid moiety [(2)Adod]4 (IK00041) and a lipidic peptide containing substituted amino acid residues (IK14DE04).

c-Src = conditions: cited from earlier work
Text: Given the role of NFAT proteins in regulating transcription of IFN-γ[46],[47], suppression of NFAT attenuates IFN-γ-activated endogenous IL-12p40 mRNA expression. In addition, IFN-γ production in DCs is dependent on a Janus kinase (JAK) family member, Tyk2, that signals via signal transducers and activators of transcription (STATs)[49] and within DCs, c-Src contributes to c ... || Given the role of Lck in upstream signalling upon TCR activation[34],[35] which leads to IL-2 production[10],[11], we tested the effect of a known Lck inhibitor, A-770041 on IL-2 expression within supernatants from stimulated T cell cultures after 72 h.

RSKAKNPLYR [IK14000]
CD25 expression in CD4+ T cells [1]: decrease in CD25 expression in CD4+ T cells at higher concentrations | Lck activity (Lck): neither IK14000 nor IK00041 had an effect | c-Src activity, earlier report (c-Src): inhibits c-Src activity
